Source: publication doi:10.1101/2020.06.11.145995v1 (biorxiv, 2020)
Read-outs that look alike come from different tables or passages of the source. Values belong to the molecule of their own block, whether it stands above or below them.

Legend:
Experiment in all cases: biochemical
YANK2 = YANK2 (Homo sapiens, UniProt Q9NY57)
PLK4 = PLK4 (Homo sapiens, UniProt O00444)
TEC = TEC (Homo sapiens, UniProt P42680)
STK35 = STK35 (Homo sapiens, UniProt Q8TDR2)
NEK5 = NEK5 (Homo sapiens, UniProt Q6P3R8)
TRKC = TRKC (Homo sapiens, UniProt Q16288)
YSK1 = YSK1 (Homo sapiens, UniProt O00506)
RET(V804M) = RET(V804M) (Homo sapiens, UniProt P07949, V804M)
SGK3 = SGK3 (Homo sapiens, UniProt Q96BR1)
PFTK1 = PFTK1 (Homo sapiens, UniProt O94921)
PIK3C2B = PIK3C2B (Homo sapiens, UniProt O00750)
PRKR = PRKR (Homo sapiens, UniProt P19525)
SLK = SLK (Homo sapiens, UniProt Q9H2G2)
RIOK3 = RIOK3 (Homo sapiens, UniProt O14730)
PIK3CA(M1043I) = target: PIK3CA(M1043I (Homo sapiens, UniProt P42336, M1043I))
NEK11 = NEK11 (Homo sapiens, UniProt Q8NG66)
RPS6KA4 = RPS6KA4 (Homo sapiens, UniProt O75676)
PLK1 = PLK1 (Homo sapiens, UniProt P53350)
RIPK2 = RIPK2 (Homo sapiens, UniProt O43353)
ZAK = ZAK (Homo sapiens, UniProt Q9NYL2)
STK39 = STK39 (Homo sapiens, UniProt Q9UEW8)
RIPK1 = RIPK1 (Homo sapiens, UniProt Q13546)
PRKCD = PRKCD (Homo sapiens, UniProt Q05655)
STK36 = STK36 (Homo sapiens, UniProt Q9NRP7)
ZAP70 = ZAP70 (Homo sapiens, UniProt P43403)
TYRO3 = TYRO3 (Homo sapiens, UniProt Q06418)
RSK1 = RSK1 (Homo sapiens, UniProt Q15418)
TNNI3K = TNNI3K (Homo sapiens, UniProt Q59H18)
TRKB = TRKB (Homo sapiens, UniProt Q16620)
[1] = read-out: CPT-1-70-1 (1μM) % control
[2] = read-out: CPT-1-70-1 (1μM) % control, Kin.Dom.1-N-terminal
[3] = read-out: CPT-1-70-1 (1μM) % control, Kin.Dom.2-C-terminal
[4] = read-out: HYJ-2-002-1 (1μM) % control
[5] = read-out: HYJ-2-002-1 (1μM) % control, Kin.Dom.1-N-terminal
[6] = read-out: HYJ-2-002-1 (1μM) % control, Kin.Dom.2-C-terminal

RSK1, sequence (Q15418 whole entry): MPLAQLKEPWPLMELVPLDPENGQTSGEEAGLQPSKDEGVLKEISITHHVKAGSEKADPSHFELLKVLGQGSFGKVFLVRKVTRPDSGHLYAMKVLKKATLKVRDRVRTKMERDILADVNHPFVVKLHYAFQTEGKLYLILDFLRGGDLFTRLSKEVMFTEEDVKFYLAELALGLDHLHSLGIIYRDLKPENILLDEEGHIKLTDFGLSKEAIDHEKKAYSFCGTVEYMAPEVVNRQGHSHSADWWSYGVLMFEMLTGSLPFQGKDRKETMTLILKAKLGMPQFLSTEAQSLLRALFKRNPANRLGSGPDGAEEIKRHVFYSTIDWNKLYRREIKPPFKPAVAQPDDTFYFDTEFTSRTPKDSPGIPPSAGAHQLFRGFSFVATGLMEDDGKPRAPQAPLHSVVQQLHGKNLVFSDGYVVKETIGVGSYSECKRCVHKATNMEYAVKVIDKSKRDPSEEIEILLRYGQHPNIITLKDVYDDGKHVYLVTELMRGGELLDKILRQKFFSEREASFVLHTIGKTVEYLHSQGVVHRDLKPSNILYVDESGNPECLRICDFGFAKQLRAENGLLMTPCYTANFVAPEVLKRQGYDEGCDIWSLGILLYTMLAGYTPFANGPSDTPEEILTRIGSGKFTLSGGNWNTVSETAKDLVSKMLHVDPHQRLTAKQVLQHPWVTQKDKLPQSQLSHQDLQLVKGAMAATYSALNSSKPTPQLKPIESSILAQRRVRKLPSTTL
RPS6KA4, sequence (O75676 whole entry): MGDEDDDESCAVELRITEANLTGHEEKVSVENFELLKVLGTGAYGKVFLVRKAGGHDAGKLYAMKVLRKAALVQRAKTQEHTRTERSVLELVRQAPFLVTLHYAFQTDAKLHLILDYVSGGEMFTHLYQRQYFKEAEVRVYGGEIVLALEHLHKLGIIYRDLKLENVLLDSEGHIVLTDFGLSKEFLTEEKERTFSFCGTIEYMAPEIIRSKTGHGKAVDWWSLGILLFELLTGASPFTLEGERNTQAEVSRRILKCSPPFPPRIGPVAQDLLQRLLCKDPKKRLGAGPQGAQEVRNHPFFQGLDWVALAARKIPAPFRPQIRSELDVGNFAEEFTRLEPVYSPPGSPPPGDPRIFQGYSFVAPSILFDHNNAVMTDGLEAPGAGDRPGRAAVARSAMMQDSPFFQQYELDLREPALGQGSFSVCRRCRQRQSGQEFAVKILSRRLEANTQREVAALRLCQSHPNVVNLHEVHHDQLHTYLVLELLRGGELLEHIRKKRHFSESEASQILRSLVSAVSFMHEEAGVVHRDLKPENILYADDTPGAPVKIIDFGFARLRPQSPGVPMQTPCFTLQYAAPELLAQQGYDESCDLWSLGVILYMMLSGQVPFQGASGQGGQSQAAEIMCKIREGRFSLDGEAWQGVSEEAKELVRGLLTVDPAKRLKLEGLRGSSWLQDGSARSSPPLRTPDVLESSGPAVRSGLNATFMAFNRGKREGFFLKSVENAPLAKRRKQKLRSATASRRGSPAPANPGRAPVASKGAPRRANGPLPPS
PLK1, sequence (P53350 whole entry): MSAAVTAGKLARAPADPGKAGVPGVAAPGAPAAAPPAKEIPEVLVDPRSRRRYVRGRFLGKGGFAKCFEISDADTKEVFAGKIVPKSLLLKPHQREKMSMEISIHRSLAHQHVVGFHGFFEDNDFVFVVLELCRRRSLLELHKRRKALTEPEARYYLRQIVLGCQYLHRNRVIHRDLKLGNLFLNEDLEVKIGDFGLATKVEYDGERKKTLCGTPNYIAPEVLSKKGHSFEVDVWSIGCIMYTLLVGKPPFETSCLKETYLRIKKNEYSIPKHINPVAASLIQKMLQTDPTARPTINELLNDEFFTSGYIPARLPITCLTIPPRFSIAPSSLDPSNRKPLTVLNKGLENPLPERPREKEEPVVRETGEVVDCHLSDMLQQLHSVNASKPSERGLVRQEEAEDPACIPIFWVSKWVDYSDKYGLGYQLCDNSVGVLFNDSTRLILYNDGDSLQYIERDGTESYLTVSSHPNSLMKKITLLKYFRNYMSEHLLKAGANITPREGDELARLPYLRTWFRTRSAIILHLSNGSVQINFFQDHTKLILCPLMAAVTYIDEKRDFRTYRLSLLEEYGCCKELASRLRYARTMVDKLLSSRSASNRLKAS
ZAK, sequence (Q9NYL2 whole entry): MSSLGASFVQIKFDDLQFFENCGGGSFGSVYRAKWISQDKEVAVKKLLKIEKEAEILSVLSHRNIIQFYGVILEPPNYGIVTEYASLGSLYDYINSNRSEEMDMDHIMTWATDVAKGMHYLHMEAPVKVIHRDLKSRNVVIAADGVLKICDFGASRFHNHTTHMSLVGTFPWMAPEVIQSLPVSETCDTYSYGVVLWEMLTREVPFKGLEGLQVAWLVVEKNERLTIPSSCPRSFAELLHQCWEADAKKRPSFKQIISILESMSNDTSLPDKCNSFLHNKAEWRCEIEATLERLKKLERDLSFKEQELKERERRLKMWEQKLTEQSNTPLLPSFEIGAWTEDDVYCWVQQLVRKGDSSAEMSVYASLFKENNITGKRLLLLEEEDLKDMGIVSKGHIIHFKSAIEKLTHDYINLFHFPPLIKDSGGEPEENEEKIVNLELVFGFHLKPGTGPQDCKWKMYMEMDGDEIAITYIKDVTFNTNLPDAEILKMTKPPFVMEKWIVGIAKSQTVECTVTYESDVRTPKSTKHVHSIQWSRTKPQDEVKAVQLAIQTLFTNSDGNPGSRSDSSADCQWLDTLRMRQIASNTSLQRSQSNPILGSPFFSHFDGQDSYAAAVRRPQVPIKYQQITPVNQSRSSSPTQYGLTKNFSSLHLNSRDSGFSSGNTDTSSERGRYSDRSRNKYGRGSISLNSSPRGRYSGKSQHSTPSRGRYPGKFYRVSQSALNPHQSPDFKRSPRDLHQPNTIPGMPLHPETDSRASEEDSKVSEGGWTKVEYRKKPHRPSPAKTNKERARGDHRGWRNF
PRKR, sequence (P19525 whole entry): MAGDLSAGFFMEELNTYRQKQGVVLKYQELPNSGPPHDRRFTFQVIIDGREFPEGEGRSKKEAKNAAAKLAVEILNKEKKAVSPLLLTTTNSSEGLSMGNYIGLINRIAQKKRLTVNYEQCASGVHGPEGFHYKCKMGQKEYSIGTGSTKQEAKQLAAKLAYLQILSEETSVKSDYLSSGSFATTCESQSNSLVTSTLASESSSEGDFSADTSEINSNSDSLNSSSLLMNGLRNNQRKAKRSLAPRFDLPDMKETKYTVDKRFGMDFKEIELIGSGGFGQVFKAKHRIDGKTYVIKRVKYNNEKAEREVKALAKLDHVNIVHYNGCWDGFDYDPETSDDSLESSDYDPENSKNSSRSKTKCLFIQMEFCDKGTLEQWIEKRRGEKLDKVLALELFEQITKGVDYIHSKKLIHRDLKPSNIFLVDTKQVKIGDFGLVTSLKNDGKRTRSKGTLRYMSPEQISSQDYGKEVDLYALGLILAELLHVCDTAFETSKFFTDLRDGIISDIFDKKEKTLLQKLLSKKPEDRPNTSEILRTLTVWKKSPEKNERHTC
RIOK3, sequence (O14730 whole entry): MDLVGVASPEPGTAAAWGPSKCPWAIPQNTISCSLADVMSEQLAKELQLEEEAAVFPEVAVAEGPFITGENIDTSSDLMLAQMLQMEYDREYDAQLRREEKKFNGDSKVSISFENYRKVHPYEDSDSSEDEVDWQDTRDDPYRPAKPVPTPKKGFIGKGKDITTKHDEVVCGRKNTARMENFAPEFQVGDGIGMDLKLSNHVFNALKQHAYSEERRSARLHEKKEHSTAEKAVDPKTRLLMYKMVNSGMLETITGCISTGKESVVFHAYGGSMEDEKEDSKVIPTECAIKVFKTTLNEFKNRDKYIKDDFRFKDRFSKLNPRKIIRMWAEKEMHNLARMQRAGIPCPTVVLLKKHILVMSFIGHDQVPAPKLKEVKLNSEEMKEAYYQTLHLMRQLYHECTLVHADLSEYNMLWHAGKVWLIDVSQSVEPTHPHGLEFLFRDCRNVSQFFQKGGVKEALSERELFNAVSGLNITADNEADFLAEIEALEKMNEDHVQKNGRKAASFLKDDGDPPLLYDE
ZAP70, sequence (P43403 whole entry): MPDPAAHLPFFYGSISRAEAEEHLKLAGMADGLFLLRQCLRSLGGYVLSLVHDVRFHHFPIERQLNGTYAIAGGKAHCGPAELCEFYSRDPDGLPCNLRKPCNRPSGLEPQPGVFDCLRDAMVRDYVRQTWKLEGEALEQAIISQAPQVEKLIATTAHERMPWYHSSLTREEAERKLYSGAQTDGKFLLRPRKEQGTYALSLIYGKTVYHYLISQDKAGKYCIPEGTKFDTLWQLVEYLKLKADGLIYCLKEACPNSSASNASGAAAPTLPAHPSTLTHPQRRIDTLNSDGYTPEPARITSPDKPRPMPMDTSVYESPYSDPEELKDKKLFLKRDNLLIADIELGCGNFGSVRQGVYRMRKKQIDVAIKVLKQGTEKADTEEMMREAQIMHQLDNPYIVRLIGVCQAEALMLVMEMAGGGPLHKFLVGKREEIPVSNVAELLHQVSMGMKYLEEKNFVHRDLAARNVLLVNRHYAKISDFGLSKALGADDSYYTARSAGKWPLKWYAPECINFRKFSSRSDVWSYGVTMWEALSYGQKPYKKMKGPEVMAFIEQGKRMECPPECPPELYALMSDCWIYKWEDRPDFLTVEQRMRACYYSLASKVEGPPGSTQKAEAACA
YANK2, sequence (Q9NY57 whole entry): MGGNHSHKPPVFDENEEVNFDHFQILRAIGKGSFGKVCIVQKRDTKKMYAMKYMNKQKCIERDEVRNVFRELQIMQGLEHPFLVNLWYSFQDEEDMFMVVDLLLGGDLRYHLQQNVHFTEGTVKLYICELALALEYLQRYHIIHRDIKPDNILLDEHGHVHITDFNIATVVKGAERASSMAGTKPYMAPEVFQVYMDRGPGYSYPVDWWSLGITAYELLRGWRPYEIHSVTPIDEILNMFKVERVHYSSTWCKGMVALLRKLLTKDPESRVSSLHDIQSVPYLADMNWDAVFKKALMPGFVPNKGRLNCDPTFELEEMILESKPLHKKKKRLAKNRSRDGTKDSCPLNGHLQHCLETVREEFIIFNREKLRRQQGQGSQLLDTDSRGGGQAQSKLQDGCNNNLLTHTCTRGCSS

SMILES: CN1CCN(c2ccc(Nc3nc(Oc4ccc(NC(=O)CCl)cc4)c4cc[nH]c4n3)cc2)CC1 [CPT1-70-1]
- remaining activity at 1 µM (YANK2; [1]): 100%
- remaining activity at 1 µM (PLK4; [1]): 23%
- remaining activity at 1 µM (TEC; [1]): 10%
- remaining activity at 1 µM (STK35; [1]): 100%
- remaining activity at 1 µM (NEK5; [1]): 82%
- remaining activity at 1 µM (TRKC; [1]): 61%
- remaining activity at 1 µM (YSK1; [1]): 89%
- remaining activity at 1 µM (RET(V804M); [1]): 2.2%
- remaining activity at 1 µM (SGK3; [1]): 74%
- remaining activity at 1 µM (PFTK1; [1]): 100%
- remaining activity at 1 µM (PIK3C2B; [1]): 100%
- remaining activity at 1 µM (PRKR; [1]): 93%
- remaining activity at 1 µM (SLK; [1]): 77%
- remaining activity at 1 µM (RIOK3; [1]): 53%
- remaining activity at 1 µM (PIK3CA(M1043I); [1]): 100%
- remaining activity at 1 µM (NEK11; [1]): 95%
- remaining activity at 1 µM (RPS6KA4; [2]): 100%
- remaining activity at 1 µM (RPS6KA4; [3]): 79%
- remaining activity at 1 µM (PLK1; [1]): 100%
- remaining activity at 1 µM (RIPK2; [1]): 100%
- remaining activity at 1 µM (ZAK; [1]): 71%
- remaining activity at 1 µM (STK39; [1]): 85%
- remaining activity at 1 µM (RIPK1; [1]): 0.15%
- remaining activity at 1 µM (PRKCD; [1]): 100%
- remaining activity at 1 µM (STK36; [1]): 78%
- remaining activity at 1 µM (ZAP70; [1]): 0.2%
- remaining activity at 1 µM (TYRO3; [1]): 100%
- remaining activity at 1 µM (RSK1; [2]): 72%
- remaining activity at 1 µM (RSK1; [3]): 100%
- remaining activity at 1 µM (TNNI3K; [1]): 100%
- remaining activity at 1 µM (TRKB; [1]): 28%

- remaining activity at 1 µM (YANK2; [4]): 100%
- remaining activity at 1 µM (PLK4; [4]): 100%
- remaining activity at 1 µM (TEC; [4]): 3.8%
- remaining activity at 1 µM (STK35; [4]): 91%
- remaining activity at 1 µM (NEK5; [4]): 21%
- remaining activity at 1 µM (TRKC; [4]): 8%
- remaining activity at 1 µM (YSK1; [4]): 87%
- remaining activity at 1 µM (RET(V804M); [4]): 1%
- remaining activity at 1 µM (SGK3; [4]): 100%
- remaining activity at 1 µM (PFTK1; [4]): 100%
- remaining activity at 1 µM (PIK3C2B; [4]): 100%
- remaining activity at 1 µM (PRKR; [4]): 75%
- remaining activity at 1 µM (SLK; [4]): 9.8%
- remaining activity at 1 µM (RIOK3; [4]): 100%
- remaining activity at 1 µM (PIK3CA(M1043I); [4]): 100%
- remaining activity at 1 µM (NEK11; [4]): 37%
- remaining activity at 1 µM (RPS6KA4; [5]): 99%
- remaining activity at 1 µM (RPS6KA4; [6]): 100%
- remaining activity at 1 µM (PLK1; [4]): 100%
- remaining activity at 1 µM (RIPK2; [4]): 5.3%
- remaining activity at 1 µM (ZAK; [4]): 3.9%
- remaining activity at 1 µM (STK39; [4]): 94%
- remaining activity at 1 µM (RIPK1; [4]): 8.2%
- remaining activity at 1 µM (PRKCD; [4]): 78%
- remaining activity at 1 µM (STK36; [4]): 2.2%
- remaining activity at 1 µM (ZAP70; [4]): 69%
- remaining activity at 1 µM (TYRO3; [4]): 40%
- remaining activity at 1 µM (RSK1; [5]): 96%
- remaining activity at 1 µM (RSK1; [6]): 61%
- remaining activity at 1 µM (TNNI3K; [4]): 6.6%
- remaining activity at 1 µM (TRKB; [4]): 4.2%
SMILES: CCN1CCN(Cc2ccc(NC(=O)c3ccc(C)c(CCc4cnc5[nH]ccc5c4OC)c3)cc2C(F)(F)F)CC1 [HYJ-2-002-1]
